Experimental data: patent US12077503B2, “Substituted cyclic amides and their use as herbicides” (FMC CORPORATION, priority 2015, dated 2024)

What was measured:
Format in all cases: in vivo
[1] = tested on: Galium (catchweed bedstraw, Galium aparine); experiment: Test A postemergence
Text: (§1) Seeds of plant species selected from barnyardgrass (Echinochloa crus-galli), Kochia (Kochia scoparia), ragweed (common ragweed, Ambrosia elatior), ryegrass, Italian (Italian ryegrass, Lolium multiflorum), crabgrass, large (Digitaria sanguinalis), giant foxtail (Setaria faberii), green foxtail (Setaria viridis), morningglory (Ipomoea spp.), pigweed (Amaranthus retroflexus), velvetleaf (Abutilon theophrasti), wheat (Triticum aestivum), and corn (Zea mays) were planted into a blend of loam soil and sand and treated preemergence with a directed soil spray using test chemicals formulated in anon-phytotoxic solvent mixture which included a surfactant.
(§2) At the same time, plants selected from these crop and weed species and also blackgrass (Alopecurus myosuroides), and Galium (catchweed bedstraw, Galium aparine) were planted in pots containing the same blend of loam soil and sand and treated with postemergence applications of test chemicals formulated in the same manner. Plants ranged in height from 2 to 10 cm and were in the one- to two-leaf stage for the postemergence treatment. Treated plants and untreated controls were maintained in a greenhouse for approximately 10 d, after which time all treated plants were compared to untreated controls and visually evaluated for injury. Plant response ratings, summarized in Table A, are based on a 0 to 100 scale where 0 is no effect and 100 is complete control. A dash (-) response means no test result.

[2] = tested on: pigweed (Amaranthus retroflexus); experiment: Test A postemergence
Text: as §1, §2

[3] = tested on: giant foxtail (Setaria faberii); experiment: Test A postemergence
Text: as §1, §2

[4] = tested on: Kochia (Kochia scoparia); experiment: Test A postemergence
Text: as §1, §2

[5] = tested on: corn (Zea mays); experiment: Test A postemergence
Text: as §1, §2

[6] = tested on: barnyardgrass (Echinochloa crus-galli); experiment: Test A postemergence; conditions: for Barnyardgrass plant response rating: 125 g ai/ha, postemergence, visual injury rating on 0 to 100 scale (0 no effect, 100 complete control), approx. 10 d; for Plant response rating, Barnyardgrass: Postemergence, 500 g ai/ha, 0 to 100 scale where 0 is no effect and 100 is complete control
Text: as §1, §2

[7] = tested on: ragweed (common ragweed, Ambrosia elatior); experiment: Test A postemergence
Text: as §1, §2

[8] = tested on: blackgrass (Alopecurus myosuroides); experiment: Test A postemergence; conditions: for Blackgrass plant response rating: 125 g ai/ha, postemergence, visual injury rating on 0 to 100 scale (0 no effect, 100 complete control), approx. 10 d; for Plant response rating, Blackgrass: Postemergence, 500 g ai/ha, 0 to 100 scale where 0 is no effect and 100 is complete control
Text: as §1, §2

[9] = tested on: ryegrass, Italian (Italian ryegrass, Lolium multiflorum); experiment: Test A postemergence
Text: as §1, §2

[10] = tested on: wheat (Triticum aestivum); experiment: Test A postemergence
Text: as §1, §2

[11] = tested on: rice (Oryra sativa); experiment: Test B flooded paddy test; conditions: Flood, 0 to 100 scale where 0 is no effect and 100 is complete control, 13 to 15 d
Description: (§3) Plant species in the flooded paddy test selected from rice (Oryra sativa), sedge, umbrella (small-flower umbrella sedge, Cyperus difformis), ducksalad (Heteranthera limosa), and barnyardgrass (Echinochloa crus-galli) were grown to the 2-leaf stage for testing. At time of treatment, test pots were flooded to 3 cm above the soil surface, treated by application of test compounds directly to the paddy water, and then maintained at that water depth for the duration of the test. Treated plants and controls were maintained in a greenhouse for 13 to 15 d, after which time all species were compared to controls and visually evaluated. Plant response ratings, summarized in Table B, are based on a scale of 0 to 100 where 0 is no effect and 100 is complete control. A dash (-) response means no test result.

[12] = tested on: ducksalad (Heteranthera limosa); experiment: Test B flooded paddy test; conditions: Flood, 0 to 100 scale where 0 is no effect and 100 is complete control, 13 to 15 d
Description: as §3

[13] = tested on: barnyardgrass (Echinochloa crus-galli); experiment: Test B flooded paddy test; conditions: Flood, 0 to 100 scale where 0 is no effect and 100 is complete control, 13 to 15 d
Description: as §3

[14] = tested on: sedge, umbrella (small-flower umbrella sedge, Cyperus difformis); experiment: Test B flooded paddy test; conditions: Flood, 0 to 100 scale where 0 is no effect and 100 is complete control, 13 to 15 d
Description: as §3

[15] = tested on: pigweed (Amaranthus retroflexus); experiment: Test A preemergence; conditions: Preemergence; for Plant response rating, Pigweed: 125 g ai/ha, visual injury after approximately 10 d, 0 to 100 scale where 0 is no effect and 100 is complete control; for Pigweed plant response rating (0 to 100 scale, 0 is no effect, 100 is complete control): 500 g ai/ha, visual injury approx. 10 d
Text: as §1, §2

[16] = tested on: giant foxtail (Setaria faberii); experiment: Test A preemergence; conditions: Preemergence; for Plant response rating, Foxtail, Giant: 125 g ai/ha, visual injury after approximately 10 d, 0 to 100 scale where 0 is no effect and 100 is complete control; for Foxtail, Giant plant response rating (0 to 100 scale, 0 is no effect, 100 is complete control): 500 g ai/ha, visual injury approx. 10 d
Text: as §1, §2

[17] = tested on: Kochia (Kochia scoparia); experiment: Test A preemergence; conditions: Preemergence; for Plant response rating, Kochia: 125 g ai/ha, visual injury after approximately 10 d, 0 to 100 scale where 0 is no effect and 100 is complete control; for Kochia plant response rating (0 to 100 scale, 0 is no effect, 100 is complete control): 500 g ai/ha, visual injury approx. 10 d
Text: as §1, §2

[18] = tested on: barnyardgrass (Echinochloa crus-galli); experiment: Test A preemergence; conditions: Preemergence; for Plant response rating, Barnyardgrass: 125 g ai/ha, visual injury after approximately 10 d, 0 to 100 scale where 0 is no effect and 100 is complete control; for Barnyardgrass plant response rating (0 to 100 scale, 0 is no effect, 100 is complete control): 500 g ai/ha, visual injury approx. 10 d
Text: as §1, §2

[19] = tested on: ragweed (common ragweed, Ambrosia elatior); experiment: Test A preemergence; conditions: Preemergence; for Plant response rating, Ragweed: 125 g ai/ha, visual injury after approximately 10 d, 0 to 100 scale where 0 is no effect and 100 is complete control; for Ragweed plant response rating (0 to 100 scale, 0 is no effect, 100 is complete control): 500 g ai/ha, visual injury approx. 10 d
Text: as §1, §2

[20] = tested on: ryegrass, Italian (Italian ryegrass, Lolium multiflorum); experiment: Test A preemergence; conditions: Preemergence; for Plant response rating, Ryegrass, Italian: 125 g ai/ha, visual injury after approximately 10 d, 0 to 100 scale where 0 is no effect and 100 is complete control; for Ryegrass, Italian plant response rating (0 to 100 scale, 0 is no effect, 100 is complete control): 500 g ai/ha, visual injury approx. 10 d
Text: as §1, §2

[21] = 125 g ai/ha, postemergence, visual rating after approx. 10 d, 0 to 100 scale (0 no effect, 100 complete control)
[22] = Postemergence, 500 g ai/ha, 0 to 100 scale where 0 is no effect and 100 is complete control
[23] = 125 g ai/ha, postemergence, visual injury rating on 0 to 100 scale (0 no effect, 100 complete control), approx. 10 d

| SMILES | Plant response rating, Galium [1, 22] | Plant response rating, Pigweed [2, 22] | Plant response rating, Foxtail, Giant [3, 22] | Plant response rating, Kochia [4, 22] | Plant response rating, Corn [5, 22] | Barnyardgrass plant response rating [6] | Plant response rating, Barnyardgrass [6] | Plant response rating, Ragweed [7, 22] | Blackgrass plant response rating [8] | Plant response rating, Blackgrass [8] | Plant response rating, Ryegrass, Italian [9, 22] | Plant response rating, Wheat [10, 22] | Plant response rating, Pigweed [15] | Pigweed plant response rating (0 to 100 scale, 0 is no effect, 100 is complete control) [15] | Plant response rating, Foxtail, Giant [16] | Foxtail, Giant plant response rating (0 to 100 scale, 0 is no effect, 100 is complete control) [16] | Plant response rating, Kochia [17] | Kochia plant response rating (0 to 100 scale, 0 is no effect, 100 is complete control) [17] | Plant response rating, Barnyardgrass [18] | Barnyardgrass plant response rating (0 to 100 scale, 0 is no effect, 100 is complete control) [18] | also measured |
| --- | --- | --- | --- | --- | --- | --- | --- | --- | --- | --- | --- | --- | --- | --- | --- | --- | --- | --- | --- | --- | --- |
| O=C1NCC(c2ccc(Oc3ccccc3)cc2)C1C(=O)Nc1ccccc1F (racemic) [Compound 534] | 0 | 0 | 0 | 0 | 0 | 0 | 0 | 0 | 0 | 0 | 0 | 0 | 0 | 0 | 0 | 0 | 0 | 0 | 0 | 0 | Plant response rating, Galium [1, 21]: 0; Plant response rating, Pigweed [2, 21]: 0; Plant response rating, Foxtail, Giant [3, 21]: 0; Plant response rating, Kochia [4, 21]: 0; Plant response rating, Corn [5, 21]: 0; Plant response rating, Ragweed [7, 21]: 0; Plant response rating, Ryegrass, Italian [9, 21]: 0; Plant response rating, Wheat [10, 21]: 0; Plant response rating, Rice ([11]; 500 g ai/ha): 20; Plant response rating, Ducksalad ([12]; 500 g ai/ha): 0; Plant response rating, Barnyardgrass ([13]; 500 g ai/ha): 0; Plant response rating, Sedge, Umbrella ([14]; 500 g ai/ha): 0; Plant response rating, Ragweed [19]: 0; Ragweed plant response rating (0 to 100 scale, 0 is no effect, 100 is complete control) [19]: 0; Plant response rating, Ryegrass, Italian [20]: 0; Ryegrass, Italian plant response rating (0 to 100 scale, 0 is no effect, 100 is complete control) [20]: 0 |
| O=C1NCC(c2ccc(C3CC3)cc2)C1C(=O)Nc1cccc(F)c1F (racemic) [Compound 501] | 0 | 0 | 80 | 0 | 30 | 50 | 80 | 0 | 30 | 40 | 20 | 0 | 0 | 20 | 80 | 90 | 0 | 30 | 80 | 90 | Galium plant response rating [1, 23]: 0; Pigweed plant response rating [2, 23]: 0; Foxtail, Giant plant response rating [3, 23]: 70; Kochia plant response rating [4, 23]: 0; Corn plant response rating [5, 23]: 0; Ragweed plant response rating [7, 23]: 0; Ryegrass, Italian plant response rating [9, 23]: 0; Wheat plant response rating [10, 23]: 0; Plant response rating, Rice ([11]; 250 g ai/ha): 0; Plant response rating, Ducksalad ([12]; 250 g ai/ha): 85; Plant response rating, Barnyardgrass ([13]; 250 g ai/ha): 20; Plant response rating, Sedge, Umbrella ([14]; 250 g ai/ha): 0; Plant response rating, Ragweed [19]: 0; Ragweed plant response rating (0 to 100 scale, 0 is no effect, 100 is complete control) [19]: 50; Plant response rating, Ryegrass, Italian [20]: 0; Ryegrass, Italian plant response rating (0 to 100 scale, 0 is no effect, 100 is complete control) [20]: 0 |
